Source: patent publication US11730705B2, “Small molecule CMKLR1 antagonists in inflammatory disease” (The Board of Trustees of the Leland Stanford Junior …, priority 2019, dated 2023)
Where two headings read alike, the source gives them in different places.

Tests used:
(hu)CMKLR1 L1.2 cells = target: T1, (hu)CMKLR1 L1.2 cells (Homo sapiens, UniProt Q99788); experiment: Chemotaxis assay (chemerin-dependent CMKLR1+ cell migration); assay type: cell-based; conditions: for IC50: Table 3, migration toward huChemerin, 2 h transwell, read-out: Chemotaxis IC50 μM mean ± SEM (n)
T1 construct: expressed in transfected cells; host or cells: L1.2 pre-B cell lymphoma cells
T1 sequence (Q99788 1-373): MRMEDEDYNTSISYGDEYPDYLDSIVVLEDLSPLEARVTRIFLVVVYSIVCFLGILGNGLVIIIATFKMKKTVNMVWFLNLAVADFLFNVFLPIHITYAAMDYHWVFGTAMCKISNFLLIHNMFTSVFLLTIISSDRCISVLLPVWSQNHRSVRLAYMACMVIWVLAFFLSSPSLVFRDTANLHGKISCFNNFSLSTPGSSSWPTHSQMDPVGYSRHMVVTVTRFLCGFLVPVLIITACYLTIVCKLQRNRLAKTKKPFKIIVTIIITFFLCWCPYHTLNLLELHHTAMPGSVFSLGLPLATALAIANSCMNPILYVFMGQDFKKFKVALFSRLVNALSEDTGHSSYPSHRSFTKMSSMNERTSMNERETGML
Method: Cell culture. (hu)CMKLR1 transfectants (generated in L1.2 pre-B cell lymphoma cells) were grown in RPMI 1640 (Corning) supplemented with L-glutamine, penicillin-streptomycin, and 10% BCS and G418-sulfate (KSE Scientific). DiscoverX PathHunter® CHO-K1 CMKLR1 β-Arrestin Cells were grown in RPMI lacking phenol red (Gibco, Life Technologies), supplemented with L-glutamine, penicillin-streptomycin, sodium pyruvate, non-essential amino acid, BCS, hygromycin, and G418-sulfate.
Chemotaxis assay. (hu)CMKLR1 L1.2 cells at 1×10^6 cell/ml were treated with 5 mM sodium butyrate (Sigma) overnight to induce hCMKLR1 expression. The next day, cells were washed in migration media (RPMI+0.5% BSA) and resuspended at 1.5-3×10^6 cell/ml. Cells were pre-incubated at RT for 10 min with various concentrations of α-NETA or test compounds (α-NETA and test compounds were reconstituted in DMSO; final DMSO concentration in each well was 0.1%). 100 ul of cells were added to the upper chamber of a 24-well transwell plate (5 um pore size, Costar). Cells were allowed to migrate toward huChemerin ([…] in migration media, bottom chamber) for 2 h, 37° C., 5% CO2. The number of migrated cells was quantified by flow cytometry (BD LSR2), and live cells were distinguished based on FSC×SSC properties. The background for this assay was typically low with 0 cells migrating to the buffer alone. For each independent trial, data was normalized to the maximum migration per compound tested and an IC50 value was generated using GraphPad Prism software. The average IC50 value for n independent trials (as specified in the table) is reported.

CMKLR1 = target: T2, CMKLR1 (Homo sapiens, UniProt Q99788); experiment: β-arrestin recruitment assay (chemerin-mediated β-arrestin2 association with CMKLR1); assay type: cell-based
T2 construct: host or cells: CHO-K1 (PathHunter)
T2 sequence (Q99788 1-373): T1 sequence (Q99788 1-373)
Method: (§1) FIG. 15A-15D. […] IC50 values were determined based on 6-point dose-response curves for each compound. (FIG. 15A) α-NETA. […] (FIG. 15A-15C) mean±SEM, n=3-18 independent experiments. […] 0.2 ml each compound (in 10% captisol) or vehicle control was administered by oral gavage beginning one day prior to psoriasis induction. Back skin thickness was measured daily and normalized to day 0. mean±SEM, n=10 mice for vehicle and α-NETA groups pooled from two independent trials; n=3 mice for (27) and (6) from one trial.
Cell culture. […] DiscoverX PathHunter® CHO-K1 CMKLR1 β-Arrestin Cells were grown in RPMI lacking phenol red (Gibco, Life Technologies), supplemented with L-glutamine, penicillin-streptomycin, sodium pyruvate, non-essential amino acid, BCS, hygromycin, and G418-sulfate.
β-arrestin recruitment assay. CMKLR1-CHO-β-Arrestin cells were seeded in 96 well plates at 1×10^5 cell/ml-100 ul/well and incubated overnight at 37° C., 5% CO2. The next day, media was removed and cells were pre-incubated in PBS with α-NETA or test compound (95 ul/well) in a 6 point dose response curve from 100 μM to 0.3 μM for 10 min at RT. (α-NETA and test compounds were reconstituted in DMSO; final DMSO concentration in each well was 0.1%). After 10 min, 5 ul of recombinant human chemerin (R&D Systems) at a final concentration of 20 nM was added to each well. Plates were incubated for 90 min at 37° C., 5% CO2. Media was then removed and 50 ul of chemiluminescent substrate (Tropix Gal-Screen, Applied Biosciences) was added. The plate was incubated for 1 hr at RT and luminescence was detected using the SpectraMax M5 plate reader (Molecular Devices). For each independent trial (single replicate dose curves), data was normalized to the maximum signal per compound tested and an IC50 value was generated using GraphPad Prism software. The average IC50 value for n independent trials (as specified in the table) is reported.

[1] = tested on: IMQ-induced psoriasis in mice; experiment: IMQ-induced psoriasis model; assay type: in vivo, mouse; conditions: for clinical features of experimental psoriasis: oral gavage in 10% captisol, FIG. 15D
Method: FIG. 11A-11G. […] Representative images of the same mouse shown over time. […] Mice were treated twice daily with IMQ±dexamethasone (DEX, 200 ug/mouse) 1 h prior to IMQ treatment. […] (FIG. 11G) NK cell (CD45+DX5+CD11b-CD3-CD19-) infiltration into lesional or non-lesional adjacent skin was determined by flow cytometry (6 day timepoint) for IMQ-treated WT and chemerin KO mice. mean±SEM, n=4 mice per genotype, ***p<0.005 by 2-tailed t-test; **p<0.01 by 2-tailed t-test; *p<0.05 by 1-tailed t-test.
FIG. 13A-13D. […] Fold change with respect to day 0 measurements are shown. […] For A-C, n=3 untreated, n=5 IMQ-treated mice of each genotype, mean±SEM, *p<0.05 by 2-tailed t-test.
as §1

EAE in C57BL/6 mice = experiment: EAE induced by MOG35-55/CFA immunization; assay type: in vivo, mouse; conditions: Table 4, 10 mg/kg daily to D 21, n = 8; for Maximum Score (Mean ± SEM): clinical score 0-5; for AUC (Mean ± SEM): mean clinical score × day
Method: FIG. 1A-1D. […] (FIG. 1D) The integrated clinical score over time for each animal was calculated as area under the curve (AUC).
EAE. […] CFA consisted of 5 mg/ml mTB (Mycobacterium-tuberculosis H37 Ra, BD Difco) in IFA (Incomplete Freund's Adjuvant, Sigma). MOG35-55 was reconstituted at 2 mg/ml in PBS. Mice also received 200 ng pertussis toxin (List Biological Laboratories, Inc) by i.p. injection at the time of immunization and two days later. […] For a direct comparison to α-NETA, the DMF and compound doses were also 10 mg/kg in 10% captisol. Mice were monitored daily for clinical disease and scored (0=normal/healthy, 1=limp tail, 2=hindlimb weakness, 3=hindlimb paralysis, 4=hindlimb and forelimb paralysis, 5=moribund/dead).

[2] = Table 3, quaternary ammonium salts, chemerin 20 nM, CHO transfectants, read-out: β-arrestin IC50 μM mean ± SEM (n)
[3] = values given in running text b220, read-out: β-arrestin2 assay IC50
[4] = Table 2, tertiary amines, chemerin 20 nM, CHO transfectants, read-out: β-arrestin IC50 μM mean ± SEM (n)

SMILES	IC50 ((hu)CMKLR1 L1.2 cells) [µM]	IC50 (CMKLR1; [2]) [µM]	IC50 (CMKLR1; [4]) [µM]	further results
CCN(CC)CCC(=O)c1cccc2ccccc12 [Compound 5]			8.9 ± 2.4	
COc1ccc(C(=O)CCN(C)C)cc1 [Compound 17]			> 100	
COc1cccc(OC)c1C(=O)CCN(C)C [Compound 19]			10.3 ± 4.5	
CN(C)CCC(=O)c1ccccc1 [Compound 12]			> 100	
CCN(CC)CCC(=O)c1ccccc1 [Compound 14]			77.8	
COc1ccc2cc(C(=O)CCN(C)C)ccc2c1 [Compound 11]			> 100	
C[N+](C)(C)CCC(=O)C1CCCCC1 [Compound 25]	> 100			IC50 (CMKLR1; [3]): 11.9 µM
CCN(C)CCC(=O)c1ccccc1 [Compound 13]			16.8 ± 8.3	
COc1ccccc1C(=O)CCN(C)C [Compound 16]			> 100	
CCCCN(C)CCC(=O)c1ccccc1 [Compound 15]			> 100	
CN(C)CCC(=O)c1cccc2ccccc12 [Compound 3]			18.8	
CCCCN(C)CCC(=O)c1ccc2ccccc2c1 [Compound 10]			44.5	
CN(C)CCC(=O)c1ccc2ccccc2c1 [Compound 7]			18.5	
C[N+](C)(C)CCS(=O)(=O)c1ccccc1.[I-] [Compound 35]				activity in β-arrestin2 assay (CMKLR1): inactive
C[C@@H]1C[C@H]2[C@@H]3CCC4=CC(=O)C=C[C@]4(C)[C@@]3(F)[C@@H](O)C[C@]2(C)[C@@]1(O)C(=O)CO [dexamethasone, reference compound]				percent inhibition of skin thickening ([1]; day 5 post-IMQ, 200 ug/mouse 1 h prior to IMQ): 62±6%
COc1ccc2ccccc2c1C(=O)CCN(C)C [Compound 6]			6.2 ± 2.5	clinical features of experimental psoriasis [1]: suppressed; Maximum Score (Mean ± SEM) (EAE in C57BL/6 mice): 2.4 ± 0.2; AUC (Mean ± SEM) (EAE in C57BL/6 mice): 25.2 ± 4.0; Day of onset (Mean ± SEM) (EAE in C57BL/6 mice): 14.5 ± 0.4
CCN(C)CCC(=O)c1cccc2ccccc12 [Compound 4]			17.9	
CCN(CC)CCC(=O)c1ccc2ccccc2c1 [Compound 8]			71.3	
CN(C)CCC(=O)C1CCCCC1 [Compound 20]			> 100	activity in β-arrestin2 assay (CMKLR1): complete loss of activity
CCN(C)CCC(=O)c1ccc2ccccc2c1 [Compound 9]			39.6	

Further lines, with some results ahead:

IC50 ((hu)CMKLR1 L1.2 cells) [µM]	IC50 (CMKLR1; [2]) [µM]	IC50 (CMKLR1; [4]) [µM]	SMILES	further results
7.2	2.9 ± 1.6		COc1ccccc1C(=O)CC[N+](C)(C)C [Compound 26]	activity in chemotaxis assay ((hu)CMKLR1 L1.2 cells): highly active; activity in β-arrestin2 assay (CMKLR1): highly active
> 100	5.6 ± 0.7		C[N+](C)(C)CCC(=O)c1ccccc1 [Compound 24]	activity in chemotaxis assay ((hu)CMKLR1 L1.2 cells): did not show any activity; activity in β-arrestin2 assay (CMKLR1): showed activity; IC50 (CMKLR1; [3]): 4.3 µM
> 100	6 ± 2.2		COc1cc(OC)cc(C(=O)CC[N+](C)(C)C)c1 [Compound 31]	
24.1	2.5 ± 0.9		C[N+](C)(C)CCC(=O)c1ccc2ccccc2c1 [Compound 23]	IC50 (CMKLR1; [3]): 3.1 µM
4.5 ± 1.5	1.9 ± 0.2		COc1ccc(C(=O)CC[N+](C)(C)C)cc1 [Compound 27]	clinical features of experimental psoriasis [1]: suppressed; activity in chemotaxis assay ((hu)CMKLR1 L1.2 cells): highly active; activity in β-arrestin2 assay (CMKLR1): highly active; Maximum Score (Mean ± SEM) (EAE in C57BL/6 mice): 2.1 ± 0.1¶; AUC (Mean ± SEM) (EAE in C57BL/6 mice): 24.3 ± 4.2; Day of onset (Mean ± SEM) (EAE in C57BL/6 mice): 16.0 ± 0.9
17.4 ± 2.2	4.8 ± 1.6		COc1ccc(C(=O)CC[N+](C)(C)C)c(OC)c1 [Compound 29]	
10.7	0.6 ± 0.3		COc1ccc2ccccc2c1C(=O)CC[N+](C)(C)C [Compound 33]	
6.8	2.1 ± 1.1		COc1cccc(OC)c1C(=O)CC[N+](C)(C)C.[I-] [Compound 30]	activity in chemotaxis assay ((hu)CMKLR1 L1.2 cells): highly active; activity in β-arrestin2 assay (CMKLR1): highly active
14.6 ± 4.8	3.8 ± 1.7		COc1cccc(C(=O)CC[N+](C)(C)C)c1 [Compound 28]	
		64	COc1cccc(C(=O)CCN(C)C)c1 [Compound 18]	
20 ± 6.2	1.5 ± 0.3		COc1ccc2cc(C(=O)CC[N+](C)(C)C)ccc2c1 [Compound 32]	
